Results on 29 compounds are retold here after PubChem BioAssay AID493191 (Broad Institute, 2011).

A word on the AC50: it is the concentration giving half of the maximal activity seen.

For this assay, the system named is MALME3 melanoma viability, CellTiter-Glo luminescence, 24 h. Put plainly: MALME3 melanoma cell viability loss, dose response, orthogonal assay for MITF inhibitor project, CellTiter-Glo, cherry-picked (AID 493191). On the technique in general: Cellular ATP, detected with luciferase, serves as a proxy for viable cell number.
Take `CC1CCC(C(C)C)C(OC(=O)Cn2c(-c3ccc(F)cc3)[n+](C)c3ccccc32)C1` (centres undefined): the half-maximal activity concentration (AC50) is 12.5 µM.
On to `O=C(NC1=C(Nc2ccc(Cl)cc2)C(=O)c2ccccc2C1=O)c1ccccc1`, for which the AC50 was 20.3 µM.
For the compound `COc1ccc(S(=O)(=O)N2CCCCC2)cc1NC(=O)c1ccc([N+](=O)[O-])o1`, the AC50 is 14.3 µM.
Turning to `FC(F)(F)c1cc(CCN2CCNC[C@@H]2Cc2ccccc2)cc(C(F)(F)F)c1`, the half-maximal activity concentration (AC50) was 19.3 µM.
The value for `CC1(C)CC(NC(=O)c2ccc(Cl)c(S(=O)(=O)N(Cc3ccccc3)c3ccccc3)c2)CC(C)(C)N1` was 22.7 µM; that for `CC(=O)Cn1ncc(Br)c(Br)c1=O` was 14.6 µM.
`O=C(/C=C/c1cccc([N+](=O)[O-])c1)c1cccs1`: the AC50 is 33.1 µM.
The value for `O=[N+]([O-])c1ccc(/C=N/n2cnc3ccccc32)s1` was 8.99 µM; that for `COc1cccc2sc(N3CCN(C(=O)c4ccc([N+](=O)[O-])o4)CC3)nc12` was 23.4 µM.
The value for `CC1CCC(C(C)C)C(OC(=O)Cn2c(-c3ccccc3)[n+](C)c3ccccc32)C1` (centres undefined) was 9.63 µM.
Take `CCCC(=O)N1CCN(c2ccc(NC(=O)c3ccc([N+](=O)[O-])o3)cc2Cl)CC1`: the AC50 was 14.4 µM.
The value for `O=C1C=CC(=C(c2ccc(O)cc2)c2ccc(O)cc2)C=C1` was 29.4 µM; that for `CC(=O)N(C)C1=C(N2CCOCC2)C(=O)c2ccccc2C1=O` was 12.7 µM; that for `CN(C)S(=O)(=O)c1ccc(-c2csc(N/N=C/c3ccc(O)cc3)n2)cc1` was 21.2 µM.
`CCCC(=O)N1CCN(c2ccc(NC(=O)c3ccc([N+](=O)[O-])o3)cc2)CC1`: the AC50 was 8.62 µM.
As to `Cc1ccc(NC(=O)c2ncn(CCCN[C@H](C)c3cccc4ccccc34)n2)cc1C`, the AC50 is 29.2 µM.
For the compound `CCC(=O)N1CCN(c2ccc(NC(=O)c3ccc([N+](=O)[O-])o3)cc2Cl)CC1`, the AC50 was 9.97 µM.
The figure for `O=C(N/N=C/c1cccc2cccnc12)c1ccccc1O` is 29.7 µM; for `O=C(CCl)Nc1cccc(-c2cnc3ccccc3n2)c1` it is 15.2 µM; for `O=C(Cn1ncc(Cl)c(Cl)c1=O)N1CCN(Cc2ccccc2)CC1` it is 8.57 µM.
Turning to `OCCNc1c2ccccc2nc2c(F)c(F)c(F)c(F)c12`, the AC50 is 15.1 µM.
The value for `COc1cc(/C=N/NC(N)=O)c(Br)cc1OCC(=O)Nc1ccccc1C` was 29.4 µM.
Regarding `CC1CN(C(=O)CCC(=O)NCCCN2CCC(Cc3ccccc3)CC2)c2cc(Cl)ccc2O1` (centres undefined), the half-maximal activity concentration (AC50) was 19.4 µM.
With `Nc1c(N(CCC2=CCCCC2)C(=O)COc2ccc(F)cc2)c(=O)[nH]c(=O)n1Cc1ccccc1`, the AC50 was 15.8 µM.
The figure for `O=C1C(Cl)=C(N2CCN(c3ccccc3[N+](=O)[O-])CC2)C(=O)c2ccccc21` is 18.2 µM.
For `CCOC(=O)CSC1=NC(=O)/C(=C/c2ccc(OC)cc2)S1`, the AC50 was 3.6 µM.
The figure for `Cc1c(NC(=O)c2ccc([N+](=O)[O-])o2)cccc1-c1nc2ncccc2o1` is 15.4 µM; for `Cc1cc(C)c2sc(N(CCCN(C)C)C(=O)COc3ccc(Cl)cc3)nc2c1` it is 32.7 µM.
The figure for `Cc1ccc(NC(=O)c2ccc([N+](=O)[O-])o2)cc1S(=O)(=O)N1CCOCC1` is 26.1 µM.
